The values that follow come from US11717536B2, “Treatment for periodontitis” (THE UNIVERSITY OF MELBOURNE, priority 2017, dated 2023).

Several values for one entry are separate records, joined by “and”; a condition that tells them apart may be missing. Identical values can stand only once. Entries after “also recorded” stand apart in the source; their conditions may differ. Marks after values point to notes of the source that are not given here. Some results are limits rather than exact numbers.

Assay [1] relates to Lactobacillus casei (NCDO 161). As to the kind of experiment: Six species polymicrobial biofilm in constant-depth film fermenter, species composition: L. casei. The assay is classed as cell-based. The method, then:
(§1) To model supragingival plaque six representative oral bacterial species, Streptococcus sanguinis (NCTC 7863), Streptococcus mutans Ingbritt, Actinomyces naeslundii (NCTC 10301), Veillonella parvula (ATCC 17745), Lactobacillus casei (NCDO 161) and Fusobacterium nucleatum (ATCC 10953) (Table 5) were cultured as a polymicrobial biofilm on a human enamel substratum in a constant-depth film fermenter (CDFF; Cardiff University, UK). The CDFF was housed in a 37° C. incubator under anaerobic conditions which were maintained by a constant flow of 5% CO2 in N2 at 1 L/h. The CDFF contained 15 removable polytetrafluoroethylene (PTFE) pans on a circular platform that was rotated at a constant speed of three rpm. The biofilms were grown on three enamel blocks (see below) in each PTFE pan using an artificial saliva medium (ASM, 2.5 g/L mucin type II (porcine, gastric, Sigma), 2.0 g/L bacteriological peptone (Oxoid), 2.0 g/L tryptone (Oxoid), 1.0 g/L yeast extract (Oxoid), 0.35 g/L NaCl, 0.2 g/L KCl, 0.2 mg/L vitamin K, 1 mg/L haemin and 0.1 g/L cysteine hydrochloride) at a constant flow rate of 30 mL/h. Prior to inoculation, the CDFF pan surfaces were conditioned for 24 h with ASM at a flow rate of 10 mL/h (McBain et al (2003) J Appl Microbiol. 94(4):655-66). In order to mimic in vivo bacterial growth conditions in the oral cavity with dietary sugar intake and to provide a high cariogenic challenge, a 1% (w/v) sucrose solution in ASM was pumped into the CDFF four times a day at four hourly intervals with a flow rate of 30 mL/h for 10 min.
(§2) Three treatments were applied to the polymicrobial biofilms: 290 ppm fluoride with 220 ppm fluoride as SnF2 and 70 ppm fluoride as NaF (referred to as SnF2), 2% CPP-ACP and 2% CPP-ACP-SnF2. These treatments were compared with the control in which the test solution was replaced with ASM. Each treatment was applied using two 10 min pulses of the test solution in ASM with a flow rate of 30 mL/h. The first pulse started 30 min prior to the first sucrose pulse of the morning and the second started 3 h 30 min after the final sucrose pulse of the day.
(§3) On day 6, 12 and 19 after inoculation four pans were removed aseptically from the CDFF and replaced with blank sterile pans. Enamel blocks from the pans were removed for bacterial enumeration and transverse microradiography.
(§4) Planktonic and loosely attached bacterial cells were firstly removed from the enamel blocks by light washing with 100 μL ASM. […]
(§5) For each timepoint, DNA was extracted separately from 8-9 enamel blocks using PowerLyzer® PowerSoil® DNA Isolation Kits (MoBio Laboratories) following the manufacturers “Vacuum Protocol” with a Precellys® bead homogeniser (Bertin Technologies). Samples were quantified using a Qubit™ dsDNA HS assay kit (Life Technologies) before being stored at −80° C. […]

The test system of assay [2] is enamel substratum of the polymicrobial biofilm caries model. As to the kind of experiment: Enamel subsurface demineralization in the polymicrobial biofilm caries model (transverse microradiography). Further details: species or system human. The note with it: for integrated mineral loss ΔZd / lesion depth LD: twice daily 10 min pulses, mean ± SD. The method, then: as §1, §2, §3
Three hundred and sixty extracted human third molars were obtained under University of Melbourne ethics approval (HREC #1237616) and sterilized by exposure to 4.1 kGy of gamma radiation. Enamel blocks were cut from the teeth with approximately 6×3×3 mm dimensions using a water-cooled diamond blade saw (Minitom, Struers) and polished using a RotoPol/RotoForce lapping instrument with 1200, 2400, 4000 grit lapping papers (Struers) and 3 and 1 μm diamond polishing pastes (Struers). The blocks were positioned in custom made CDFF pans at a depth of 100 μm and sealed in place with yellow sticky wax (Kemdent) and sterilized by exposure to 4.1 kGy of gamma radiation.
Transverse microradiography was carried out essentially as described previously [Shen et al 2011]. […] The lesion depth (μm) was determined as the distance to the point at which the mineral content reaches 95% of the sound enamel value. The integrated mineral loss (IML), represented as ΔZd, was calculated by trapezoidal integration as the area between the sound-enamel densitometric profile and that of the demineralized enamel densitometric profile in vol % min·μm.

In assay [3] the test system is Streptococcus mutans Ingbritt. As to the kind of experiment: Six species polymicrobial biofilm in constant-depth film fermenter, species composition: S. mutans. Format: cell-based. The method, then:
as §1
Three treatments were applied to the polymicrobial biofilms: 290 ppm fluoride with 220 ppm fluoride as SnF2 and 70 ppm fluoride as NaF (referred to as SnF2), 2% CPP-ACP and 2% CPP-ACP-SnF2. […]
as §5

The test system of assay [4] is Streptococcus sanguinis (NCTC 7863). Kind of assay: Six species polymicrobial biofilm in constant-depth film fermenter, species composition: S. sanguinis. Format: cell-based. As for the experimental part:
as §1, §2, §3, §4, §5

For assay [5], the system named is gingivitis. As to the kind of experiment: Clinical trial: gingivitis by Modified Gingival Index. The assay is classed as in vivo, human. Conditions: CPP-ACP gum (18.8 and 56.4 mg), 14 days, vs no gum chewing; FIG. 2. The method, then: Following the completion of the examination and supragingival plaque collection, participants received a supragingival scaling, clean and prophylaxis of all their teeth. At the completion of the last examination for leg 3, each participant received a professional fluoride treatment. Gingivitis was measured using the Modified Gingival Index [Lobene et al 1986]. This index is a modification of the Loe and Silness Gingival Index and allows greater discrimination for mild and moderate gingivitis. In this study, gingival inflammation on a scale from 0 to 4 was scored for gingival tissues associated with four sites (buccal, lingual, mesial and distal) of all teeth.

[6] abbreviates: 19 days, mean ± standard deviation, n = 5-21.

On to “Casein phosphopeptide-amorphous calcium phosphate [CPP-ACP]”, for which the “L. casei as a percentage of total bacteria in the biofilm” value in assay [1] (setting [6]) is 0.38 ± 0.23^ac %. The “change in abundance of L. casei relative to the control (in words)” value in assay [1] (twice daily treatment, day 19) is “dramatically decreased; also recorded: suppressed the emergence”. In addition, in assay [1] (twice daily treatment, consistent), the “decrease in relative abundance of L. casei compared with the control” value is given as over 95%. The “integrated mineral loss ΔZd” value is reported as 572.9 ± 97.80 vol % min · μm in assay [2] (Day 6), 1075.3 ± 148.0^ad vol % min · μm in assay [2] (Day 12) and 2105.4 ± 346.2^bd vol % min · μm in assay [2] (Day 19). Moreover, the “lesion depth LD” value in assay [2] (Day 6) is on record as 15.0 ± 2.1^a μm; in assay [2] (Day 12) it was 26.3 ± 4.4^ade μm; in assay [2] (Day 19), 52.3 ± 3.2^ad μm. Further, in assay [2] (between day 6 and day 19), the rate of demineralization stood at 112.1 vol % min·μm/day. Besides, the “reduction in rate of demineralization relative to control” value in assay [2] (between day 6 and day 19, twice daily exposure) is 50.2% and 50%. Besides, in assay [3] (setting [6]), the “S. mutans as a percentage of total bacteria in the biofilm” value was 58.70 ± 5.47^b %. In assay [3] (twice daily treatment, day 19), the “change in abundance of S. mutans relative to the control (in words)” value is “remained relatively constant”. Moreover, the “S. sanguinis as a percentage of total bacteria in the biofilm” value in assay [4] (setting [6]) is 19.85 ± 2.86^bc %. Also, the “change in abundance of S. sanguinis relative to the control (in words)” value in assay [4] (twice daily treatment, day 19) is reported as “significantly increased; also recorded: reproducible increases”. The gingival index result in assay [5] is listed as “significant CPP-ACP dose-related improvement”.
